Experimental data taken from patent US7259167B2, “Antimalarial and antiproliferative pharmacophore models, novel tryptanthrin compounds having increased solubility, and methods of making and using thereof” (United States of America as Represented by the Secretary of …, priority 2002, dated 2007).

Experiments:
[1] = Hemin binding activity assay by 1H NMR (pseudocontact shifts); details: DMSO-d6
Procedure: (§1) As provided in Example 5, the hemin binding affinity for a series of tryptanthrin compounds with functional groups at the 8-position with different electron donating/withdrawing characteristics corresponding with the pharmacophore model of the present invention was determined by ^1H NMR. The binding interaction was measured as a function of the induced up-field shift in the chemical shift as a function of increasing hemin concentration. ^1H spectra of selected compounds each analog with an increasing concentration of hemin were collected and analyzed for the effect of the pseudocontact shifts.
It is well known that bio-molecules containing the paramagnetic species Fe^+3 induce via pseudocontact effect (a thru-space paramagnetic interaction, similar to the thru-space diopolar interaction or NOE) up-field chemical shifts of the ^1H, ^13C, ^15N atoms of bound ligands. See Serge Moreau et al. (1985) Biochemica et. Biophysica Acta 107-116; Alam, S. L., et al. (1998) J. Biomol. NMR 11:119-133; and Kalodimos, C. G., et al. (2000) J. Inorg. Biochem. 79:371-380, which are herein incorporated by reference. […] See Crowley, P. B., et al. (2001) J. Am. Chem. Soc. 123:10444-10453, which is herein incorporated by reference. Consequently, the closer a particular proton on the ligand is to the Fe^+3 atom, the greater the induced Δδ.
as §1, with “The” for “As provided in Example 5, the”, “using” for “by”, “of” for “of selected compounds”
To each sample, a 100 or 200 μl aliquot of a known concentration of hemin dissolved in 1.0 ml of DMSO-d6 was added. The concentrations of the tryptanthrin compounds compounds ranged from 3.0 to 8.0 mg per 500 μl of DMSO. A corresponding solution of hemin in DMSO was prepared to maintain a molar ratio of tryptanthrin compounds to hemin in the range of 1:1.0 to 1:1.5.
All ^1H NMR data was collected using a Bruker Avance-600 spectrometer using methods known in the art. See e.g. Wang, J., et al. (2001) J. Am. Chem. Soc. 123:8080-8088, which is herein incorporated by reference. The proton spectra were collected at 300 K, using a spectral width of 9090.9 Hz. All spectra were acquired with 64k data points in F2. All chemical shifts were referenced internally to TMS (0.00 ppm). The spectra were processed using XWINNMR (Bruker BioSpin Corporation, Billerica, Mass.) on a Silicon Graphics O2 workstation (Silicon Graphics, Mountain View, Calif.). Each data set was multiplied by a Gaussain window function with 0.3 Hz line broadening in each dimension before transformation.

P. berghei P-line = assay: Bioavailability and efficacy of DN49 in infected mice; assay type: in vivo
Procedure: On day 0, each mouse in groups 1 to 7 was inoculated intraperitoneally with 0.1 ml, 1.0×10^6 P. berghei P-line infected red blood cell from donor mice diluted in PBS.
(§2) DN49 was a yellow powder and dissolved completely in hot DMSO. The hot DMSO solution was then diluted 1:10 in PBS.
On days 3 to 5, 0.2 ml of the three dosages at 2.5, 1.25, 0.625 mg/kg of DN49 were administered intravenously by a 29G, 0.5-inch needle (Groups 2 to 4). In addition, 0.2 ml of the three dosages at 30, 15, 7.5 mg/kg of DN49 were administered orally by a 20G, 2.5-inch needle (Groups 5 to 7). Drug administrations were performed once daily for 3 days. Group 1 served as vehicle control, and PBS was administered orally.

[2] = Further solubility experiments (remaining in solution after dilution); assay type: physicochemical
Procedure: After determining that heterocycles and hydroxy or amine substituted aromatics dissolve tryptanthrin compounds, the following was conducted to determine if once dissolved the compounds would remain in solution in aqueous environments. To this end 10 mg of DN49 was dissolved in 1.0 ml of piperidine to obtain a green solution. This solution was then added dropwise to 2.0 ml of deionized water without precipitation of the compound. The solution was placed in a chemical fume hood so that the piperidine could evaporate slowly. After a week, the piperidine had evaporated and the resulting solution had no solid in the aqueous environment and had turned from the green color of the piperidne complex back to the yellow color of uncomplexed DN49 solutions.
A […] green stock solution of DN49 in 1-(3-aminopropyl)imidazole was formed. To 1.95 ml of a given solvent listed below, 50 microliter of the stock solution was added and the resulting solution was vortexed for a second to ensure rapid mixing; this provided a 5 mM solution. The results by solvent follow: • 1. Chloroform: Solution goes from green to yellow in less than 30 minutes; no solid after more than three months at ambient conditions. • 2. Methanol: Solution goes from green to yellow between 5 and 12 hours after mixing; no solid. • 3. 1,4-dioxane: Solution goes from green to yellow in approximately 1 hour; no solid. • 4. Deionized water: Solution goes from […] over the course of several days; no solid. • 5. Acetonitrile: Solution goes from green to yellow in about 3 hours; no solid. • 6.

[3] = Characteristics of DN49 dosing preparation; assay type: physicochemical; details: Hot DMSO and further diluted in PBS (1:10)
Procedure: as §2

Structure (SMILES): O=C1c2ccccc2-n2c1nc1ncccc1c2=O [DN49]
- Maximum induced Δδ ([1]; hemin induced pseudocontact chemical shift): 0.558 ppm
- Concentration dependence Δδ ([1]; slope of Δδ v. hemin concentration): 0.09778 ppm/mole %
- extension of life of mice (P. berghei P-line; 2.5 mg/kg intravenously once daily at study days 3 to 5): 2 days
- extension of life of mice (P. berghei P-line; 30 mg/kg orally once daily at study days 3 to 5): 2 days
- mean parasitemia on day 6 (P. berghei P-line; Group 2, 2.5 mg/kg intravenously once daily days 3 to 5): 54.75%
- mean parasitemia on day 6 (P. berghei P-line; Group 3, 1.25 mg/kg intravenously once daily days 3 to 5): 55.75%
- mean parasitemia on day 6 (P. berghei P-line; Group 4, 0.625 mg/kg intravenously once daily days 3 to 5): 61.18%
- mean parasitemia on day 6 (P. berghei P-line; Group 5, 30 mg/kg orally once daily days 3 to 5): 56.11%
- mean parasitemia on day 6 (P. berghei P-line; Group 6, 15 mg/kg orally once daily days 3 to 5): 54.26%
- mean parasitemia on day 6 (P. berghei P-line; Group 7, 7.5 mg/kg orally once daily days 3 to 5): 64.23%
- acute toxicity or other deaths prior to day 6 (P. berghei P-line; IV 0.625-2.5 mg/kg, oral 7.5-30 mg/kg): no acute toxicity
- Toxic effects (P. berghei P-line; at the dosages given (up to 2.5 mg/kg IV, 30 mg/kg oral)): not observed
- activity at lower dosages (P. berghei P-line; dosages below 2.5 mg/kg intravenously or 30 mg/kg orally): no significant activity
- solid in aqueous solution after evaporation of piperidine ([2]; 10 mg in 1.0 ml piperidine added to 2.0 ml deionized water, after a week): no solid
- solid formation from 5 mM solution ([2]; 50 microliter 200 mM stock in 1-(3-aminopropyl)imidazole into 1.95 ml Chloroform, more than three months at ambient conditions): no solid
- solid formation from 5 mM solution ([2]; stock in 1-(3-aminopropyl)imidazole into 0.1 M aqueous citric acid): green solid fall out of solution after about 12 hours
- solid formation from 5 mM solution ([2]; stock in 1-(3-aminopropyl)imidazole into 1,4-dioxane): no solid
- solid formation from 5 mM solution ([2]; stock in 1-(3-aminopropyl)imidazole into 10% aqueous sodium bicarbonate): green precipitate after 8 hours
- solid formation from 5 mM solution ([2]; stock in 1-(3-aminopropyl)imidazole into Acetonitrile): no solid
- solid formation from 5 mM solution ([2]; stock in 1-(3-aminopropyl)imidazole into Deionized water): no solid
- solid formation from 5 mM solution ([2]; stock in 1-(3-aminopropyl)imidazole into Methanol): no solid
- solubility [3]: Partial
